The source of these data is patent US7989494B2, “Polymorphs of N-hydroxy-3-[4-[[[2-(2-methyl-1H-indol-3-yl)ethyl]amino]methyl]phenyl]-2E-2-propenamide” (Novartis AG, priority 2006, dated 2011).

Broadly, the aqueous solubility is the concentration that dissolves in the medium under given conditions. Low readings indicate a poorly soluble substance, high ones a readily soluble substance. Usually solubility stands for how much of the substance goes into solution per volume.

Common to all, as to format: physicochemical
The nature of series [1]: Hygroscopicity (descriptive).
A short description of series [2]: Equilibration in solvents and aqueous media, solid form by XRPD.
The nature of the next series: Aqueous solubility. Conditions: water.
Series [3] is described as follows: Sorption-desorption isotherms, VTI humidity balance. Conditions: for Sorption: 25° C., first sorption cycle; for Desorption: in % (unit assumed). The protocol: Sorption-desorption isotherms were recorded by a VTI humidity balance. The salts of (N-hydroxy-3-[4-[[[2-(2-methyl-1H-indol-3-yl)ethyl]amino]methyl]phenyl]-2E-2-propenamide were first subjected to a drying step (25° C., r.h. below 2%, 2 hours) and then to a sorption-desorption-sorption sequence, with each RH % step retained for 3 hours. The free base was kept below 2% r.h. for several hours, and thus was completely dehydrated after the drying step. Only the data of the first sorption cycle are given in the table, since, in all cases, the two sorption cycles were very similar.

Series [4] can be described thus: Solubility in organic solvents. The note with it: for solubility: organic solvent or mixture.
Series [5] in a line: Hydration/dehydration of free base forms on storage or under vacuum. The note with it: for form change upon storage: storage at ambient conditions.

Converted amounts (≈) assume the structure as drawn. Where a name gives a salt, the structure may show the parent alone. Read-outs that look alike come from different tables or passages of the source.

In the case of `Cc1[nH]c2ccccc2c1CCNCc1ccc(/C=C/C(=O)NO)cc1` (racemic) [Form A of the DL-lactate salt, N-hydroxy-3-[4-[[[2-(2-methyl-1H-indol-3-yl)ethyl]amino]methyl]phenyl]-2E-2-propenamide], the hygroscopicity result in series [1] is “slightly hygroscopic”. The “form observed on equilibration” value in series [2] (at 0° C. and 10° C. and in acetone/water mixture) was “observed along with form HA”. For the same compound, the “relative stability of the form” value in series [2] (in water and in most organic solvents) is given as “more stable than the other forms of the DL-lactate salt”. Besides, in series [2], the “form after equilibration at pH 1 and 2” value is “the chloride salt is formed”; the “form conversion under most circumstances” value was “does not convert into any other form”.

In the case of `Cc1[nH]c2ccccc2c1CCNCc1ccc(/C=C/C(=O)NO)cc1` (racemic) [Form HA of the DL-lactate salt, N-hydroxy-3-[4-[[[2-(2-methyl-1H-indol-3-yl)ethyl]amino]methyl]phenyl]-2E-2-propenamide], the hygroscopicity result in series [1] was “slightly hygroscopic”. For the same compound, the “XRPD form after equilibration” value in series [2] (Methanol) is on record as “converts to form SA”. In series [2], the “form after equilibration at pH 1 and 2” value is “the chloride salt is formed”; the “form conversion under most circumstances” value is “slowly converts into form A”.

On to `Cc1[nH]c2ccccc2c1CCNCc1ccc(/C=C/C(=O)NO)cc1` [Form A of the acetate salt, N-hydroxy-3-[4-[[[2-(2-methyl-1H-indol-3-yl)ethyl]amino]methyl]phenyl]-2E-2-propenamide], for which, in “Aqueous solubility”, the aqueous solubility was approximately 2000 µg/mL.

`Cc1[nH]c2ccccc2c1CCNCc1ccc(/C=C/C(=O)NO)cc1` [Form A of the benzoate salt, N-hydroxy-3-[4-[[[2-(2-methyl-1H-indol-3-yl)ethyl]amino]methyl]phenyl]-2E-2-propenamide]: the aqueous solubility in “Aqueous solubility” was approximately 700 µg/mL.

The compound `Cc1[nH]c2ccccc2c1CCNCc1ccc(/C=C/C(=O)NO)cc1` [Form A of the hemi-fumarate salt, N-hydroxy-3-[4-[[[2-(2-methyl-1H-indol-3-yl)ethyl]amino]methyl]phenyl]-2E-2-propenamide] gave an aqueous solubility in “Aqueous solubility” of approximately 400 µg/mL.

`Cc1[nH]c2ccccc2c1CCNCc1ccc(/C=C/C(=O)NO)cc1` [Form A of the hemi-malate salt, N-hydroxy-3-[4-[[[2-(2-methyl-1H-indol-3-yl)ethyl]amino]methyl]phenyl]-2E-2-propenamide] showed an aqueous solubility in “Aqueous solubility” of approximately 1400 µg/mL.

For `Cc1[nH]c2ccccc2c1CCNCc1ccc(/C=C/C(=O)NO)cc1` [Form A of the hemi-succinate salt, N-hydroxy-3-[4-[[[2-(2-methyl-1H-indol-3-yl)ethyl]amino]methyl]phenyl]-2E-2-propenamide], the aqueous solubility in “Aqueous solubility” was approximately 400 µg/mL.

As for `Cc1[nH]c2ccccc2c1CCNCc1ccc(/C=C/C(=O)NO)cc1` [Form A of the phosphate salt, N-hydroxy-3-[4-[[[2-(2-methyl-1H-indol-3-yl)ethyl]amino]methyl]phenyl]-2E-2-propenamide], in “Aqueous solubility”, the aqueous solubility was approximately 6000 µg/mL.

In turn, `Cc1[nH]c2ccccc2c1CCNCc1ccc(/C=C/C(=O)NO)cc1` [Form A of the propionate salt, N-hydroxy-3-[4-[[[2-(2-methyl-1H-indol-3-yl)ethyl]amino]methyl]phenyl]-2E-2-propenamide] showed an aqueous solubility in the series “Aqueous solubility” of approximately 4000 µg/mL.

On to `Cc1[nH]c2ccccc2c1CCNCc1ccc(/C=C/C(=O)NO)cc1` [Form A of the sulfate salt, N-hydroxy-3-[4-[[[2-(2-methyl-1H-indol-3-yl)ethyl]amino]methyl]phenyl]-2E-2-propenamide], for which the hygroscopicity result in series [1] is reported as “visibly hygroscopic”.

`Cc1[nH]c2ccccc2c1CCNCc1ccc(/C=C/C(=O)NO)cc1` [Form B of the tartarate salt, N-hydroxy-3-[4-[[[2-(2-methyl-1H-indol-3-yl)ethyl]amino]methyl]phenyl]-2E-2-propenamide]: in series [1], the hygroscopicity result was “hygroscopic”.

On to `Cc1[nH]c2ccccc2c1CCNCc1ccc(/C=C/C(=O)NO)cc1` [Free Base, N-hydroxy-3-[4-[[[2-(2-methyl-1H-indol-3-yl)ethyl]amino]methyl]phenyl]-2E-2-propenamide], for which the Sorption in series [3] (Sample RH % 1.5) is 0%; in series [3] (Sample RH % 5) it was 0.06%; in series [3] (Sample RH % 25) it was 3.39%; in series [3] (Sample RH % 50), 5.17%; in series [3] (Sample RH % 75) it was 5.22%; in series [3] (Sample RH % 85), 5.24%. Besides, in series [3] (Sample RH % 95), the Sorption amounted to 5.37%. Further, the Desorption in series [3] (Sample RH % 5) is reported as 4.11; in series [3] (Sample RH % 25), 5.11; in series [3] (Sample RH % 50) it was 5.21; in series [3] (Sample RH % 75), 5.31; in series [3] (Sample RH % 85), 5.33; in series [3] (Sample RH % 95), 5.37. Moreover, the “XRPD form after equilibration” value in series [2] (2-Propanol) was “No change”; in series [2] (Acetone) it was “No change”; in series [2] (Ethanol) it was “Changed to new”; in series [2] (Ethyl Acetate), “No change”; in series [2] (Methanol), “Changed to new”; in series [2] (pH = 6.8 buffer (phosphate)), “No change”. In addition, the “XRPD form after equilibration” value in series [2] (water) is listed as “No change”.

Consider `Cc1[nH]c2ccccc2c1CCNCc1ccc(/C=C/C(=O)NO)cc1` [free base form A, N-hydroxy-3-[4-[[[2-(2-methyl-1H-indol-3-yl)ethyl]amino]methyl]phenyl]-2E-2-propenamide], for which the “solubility in hot ethanol” value in series [4] (listed as Form A) is “soluble”.

`Cc1[nH]c2ccccc2c1CCNCc1ccc(/C=C/C(=O)NO)cc1` [free base form B, N-hydroxy-3-[4-[[[2-(2-methyl-1H-indol-3-yl)ethyl]amino]methyl]phenyl]-2E-2-propenamide]: the “solubility in hot ethanol” value in series [4] (listed as form B) is “insoluble”.

In the case of `Cc1[nH]c2ccccc2c1CCNCc1ccc(/C=C/C(=O)NO)cc1` [free base form C, N-hydroxy-3-[4-[[[2-(2-methyl-1H-indol-3-yl)ethyl]amino]methyl]phenyl]-2E-2-propenamide], the “solubility in hot ethanol-water mixture” value in series [4] (hot ethanol-water mixture) is “soluble”. Besides, the figures for the “form change upon storage” value in series [5] (listed as Form C) and in series [5] (listed as form C) were “spontaneously rehydrate to form HA” and “rehydrate back to form HA”, respectively.

`Cc1[nH]c2ccccc2c1CCNCc1ccc(/C=C/C(=O)NO)cc1` [free base form HA, N-hydroxy-3-[4-[[[2-(2-methyl-1H-indol-3-yl)ethyl]amino]methyl]phenyl]-2E-2-propenamide]: the aqueous solubility entry in the series “Aqueous solubility” was “approximately 0.004 mg/mL”. Further, the solubility is approximately 1500 µg/mL (≈ 4.29 mM) in series [4] (ethanol, read-out: solubility in ethanol); approximately 5600 µg/mL (≈ 16 mM) in series [4] (ethyl acetate, read-out: solubility in ethyl acetate); approximately 2300 µg/mL (≈ 6.58 mM) in series [4] (methanol, read-out: solubility in methanol). Besides, the hygroscopicity result in series [1] is reported as “slightly hygroscopic”. Further, the “form change under vacuum” value in series [5] (under vacuum even at ambient temperature) was “completely dehydrates and converts to form C”.

Take `Cc1[nH]c2ccccc2c1CCNCc1ccc(/C=C/C(=O)NO)cc1` [white crystalline solid, N-hydroxy-3-[4-[[[2-(2-methyl-1H-indol-3-yl)ethyl]amino]methyl]phenyl]-2E-2-propenamide]: the hygroscopicity entry in series [1] is on record as “non-hygroscopic”.

For the compound `Cc1[nH]c2ccccc2c1CCNCc1ccc(/C=C/C(=O)NO)cc1` [yellow powder, N-hydroxy-3-[4-[[[2-(2-methyl-1H-indol-3-yl)ethyl]amino]methyl]phenyl]-2E-2-propenamide], in series [1], the hygroscopicity entry is on record as “very highly hygroscopic”.
